From US20250179027A1, “CYCLOALKYL OR HETEROCYCLYL SUBSTITUTED HETEROARYL COMPOUND, AND COMPOSITION AND USE THEREOF” (Shenzhen TargetRx, Inc., priority 2022, published 2025)

Key:
BTK kinase = target: T1, BTK kinase (Homo sapiens, UniProt Q06187); test: HTRF kinase activity inhibition assay, BTK; type: biochemical; conditions: HTRF TK kit
T1 construct: purchased Invitrogen PV3587
From the text: In this assay, the HTRF TK Kit (Catalog No. 62TKOPEC) provided by Cisbio was used to detect the inhibitory activity of compounds on BTK kinase and BTK C481S kinase and the selectivity of compounds relative to EGFR, ITK and TEC kinases.
Reagents and consumables: BTK kinase (Invitrogen, Catalog No. PV3587), BTK C481S (Carna, Product No. 08-547), ITK (Carna, Product No. 08-181), EGFR (Carna, Product No. 08-115), TEC (Carna, Product No. 08-182), HTRF-TK kit (Cisbio, Product No. 62TKOPEC), MgCl2 (Sigma, Product No. M1028), MnCl2 (Sigma, Product No. M1787), DTT (Sigma, Product No. D0632), ATP (Sigma, Product No. A7699-1 g), DMSO (Sigma, Product No. D2650), 384-well plate (PE, Product No. 6008280).
The entire operation steps were carried out on ice, and the total reaction volume was 10 μL. The compound (4 μL), substrate and ATP (4 μL), kinase (2 μL) were added in sequence to a 384-well plate, and shaked for 30 seconds. After an appropriate time at room temperature, the detection reagent was added. After 1 hour at room temperature, the plate was detected with a microplate reader. The specific steps were as follows: • a) 1× kinase buffer solution required for kinase detection was calculated according to the amount of the detection compound, and prepared as needed; • b) compounds with 2.5×working concentration were prepared, the 100 times gradient concentration solution of compounds was diluted by 4 μL to the desired concentration, mixed well, and added to each well at 4 μL per well; • c) 5×working concentration of substrate and ATP were prepared, mixed in a ratio of 1:1 before adding to a 384-well plate, and added to each well at 4 μL per well; • d) 5×working concentration of kinase was prepared, and 2 μL was added to each well; • e) the plate was shaked on a microplate oscillator for 30 seconds, sealed with a sealing membrane, and reacted at room temperature for an appropriate time; • f) 4×working concentrations of streptavidin XL-665 and TK antibody-cryptate compound were prepared, mixed in a ratio of 1:1 before adding to a 384-well plate, and added to each well at 10 μL per well; • g) the plate was read after reacting at room temperature for 1 hour; • h) the wells with only substrate, ATP and 1% DMSO added but no kinase were blank control wells, and the wells with only substrate, ATP, 1% DMSO and kinase were positive control wells.
Readings: The values of 620 nm (cryptate) and 665 nm (XL665) were read with a BioTek Synerg Neo2 microplate reader, the ratio of 665/620 per well was calculated, and the data were exported. Data analysis: IC50 was calculated using GraphPad Prism 7.0 software. The following nonlinear fitting formula was used to obtain the IC50 (half inhibitory concentration) of compounds:
(§1) [formula] • X: Compound concentration log value • Y: Inhibition rate (% inhibition)
The kinase inhibition rate (% inhibition rate) was calculated as: […]

[1] = target: T2, phosphorylated BTK Y223 in NIH/3T3 BTK WT cells (Homo sapiens, UniProt Q06187); test: Phosphor-BTK(Y223) assay, NIH/3T3 BTK WT cells; type: cell-based; conditions: phosphorylated BTK Y223, NIH/3T3 BTK WT cells; read-out: NIH/3T3 BTK-WT pBTK IC50
T2 construct: expressed in transfected cells; host or cells: NIH/3T3 (mouse fibroblasts) engineered to express BTK WT
Summary of the method: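 NIH/3T3 cells expressing BTK WT (7.5k/well) or C481S (10k/well) were treated with compound for 0.5 h at 37 °C, then 1 mM Na3VO4 was added for 2 h. Lysates were probed overnight at room temperature with HTRF p-BTK(Y223) cryptate/d2 antibodies (665/620 nm ratio). IC50 came from nonlinear fit of % inhibition against log concentration.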

[2] = target: T3, phosphorylated BTK Y223 in NIH/3T3 BTK C481S cells (Homo sapiens, UniProt Q06187, C481S); test: Phosphor-BTK(Y223) assay, NIH/3T3 BTK C481S cells; type: cell-based; conditions: phosphorylated BTK Y223, NIH/3T3 BTK C481S cells; read-out: NIH/3T3 BTK-C481S pBTK IC50
T3 construct: expressed in transfected cells; host or cells: NIH/3T3 (mouse fibroblasts) engineered to express BTK C481S
Experimental: The purpose of this assay is to simply, quickly and directly detect the endogenous level of BTK in cells. The specific assay steps are as follows: Day 1: NIH/3T3 BTK WT cells (7.5 k/well) and NIH/3T3 BTK C481S cells (10 k/well) were plated in 96-well plates, respectively, and cultured overnight at 37° C. and 5% CO2.
• 1. A 3-fold final concentration gradient dilution of the compound was prepared, and 50 μL was added to 100 μL of cell culture; 0.5% DMSO was used as a positive control for cell growth. • 2. The plate was incubated at 37° C., 5% CO2 for 0.5 h. • 3. Na3VO4 with a final concentration of 1 mM was added, and incubated at 37° C. and 5% CO2 for 2 hours. • 4. During the incubation, the following reagents were prepared: 1× added lysis buffer: 3 vol ddH2O+1 vol 4× lysis buffer+100× blocking reagent. p-BTK (Y223) cryptate-antibody and p-BTK (Y223) d2-antibody working solutions: 1 volume of each cryopreserved antibody (stored at −20° C.) was added to 19 times volumes of assay buffer (stored at 4° C.). • 5. After the incubation, the medium was removed and 50 μL of 1× added lysis buffer was added; The mixture was centrifuged at 500 rpm for 30 min at room temperature. • 6. The lysate was mixed well and 16 μL was transferred to a 384-well plate; 1× added lysis buffer was used as a blank control. • 7. 4 μL of pre-mixed working solutions of the two antibodies (cryptate Ab:d2 Ab=1:1) were added and the plate was sealed. • 8. The plate was incubated overnight at room temperature.
Biotek cytation3.0 microplate reader was used to read the plate at 665 nm and 620 nm, and the ratio of 665/620 nm per well was calculated.
IC50 was calculated using GraphPad Prism 7.0 software.
The following nonlinear fitting formula was used to obtain the phosphorylated BTK Y223 IC50 (half phosphorylation inhibitory concentration) of the compounds:
as §1
The formula for calculating cell phosphorylation inhibition rate (% inhibition rate) was: […]

T2 sequence (Q06187 whole entry): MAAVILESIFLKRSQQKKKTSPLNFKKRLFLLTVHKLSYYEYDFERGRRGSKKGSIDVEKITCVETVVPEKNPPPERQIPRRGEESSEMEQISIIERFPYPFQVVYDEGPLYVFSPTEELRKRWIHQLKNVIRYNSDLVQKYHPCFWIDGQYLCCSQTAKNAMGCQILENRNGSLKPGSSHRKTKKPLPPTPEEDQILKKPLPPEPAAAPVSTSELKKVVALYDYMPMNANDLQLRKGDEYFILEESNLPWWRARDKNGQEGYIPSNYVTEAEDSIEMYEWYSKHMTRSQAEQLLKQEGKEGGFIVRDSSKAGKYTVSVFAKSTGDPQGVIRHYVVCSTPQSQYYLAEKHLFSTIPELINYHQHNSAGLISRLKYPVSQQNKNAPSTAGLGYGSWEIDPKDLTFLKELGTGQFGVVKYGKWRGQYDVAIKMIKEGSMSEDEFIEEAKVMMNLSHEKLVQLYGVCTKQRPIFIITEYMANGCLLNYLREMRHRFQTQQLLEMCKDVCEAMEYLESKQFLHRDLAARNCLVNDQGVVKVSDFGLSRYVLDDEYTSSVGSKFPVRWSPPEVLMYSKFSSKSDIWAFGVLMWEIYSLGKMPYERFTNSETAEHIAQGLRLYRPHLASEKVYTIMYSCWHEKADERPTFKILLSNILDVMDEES
T1 sequence (Q06187 whole entry): as above
T3 sequence (Q06187 whole entry C481S): as the sequence (Q06187 whole entry) above, with C481S counted along it

| SMILES | IC50 (BTK kinase) | IC50 [1] | IC50 [2] |
| --- | --- | --- | --- |
| COc1ccc(F)cc1C(=O)NCc1ccc(-c2nn(C3CCCC(O)C3)c3ncnc(N)c23)cc1 (single isomer, unassigned) [Example 8] |  | ≤ 25 nM | 50 to 100 nM |
| COc1ccc(F)cc1C(=O)NCc1ccc(-c2nn(C3CCC(CO)OC3)c3ncnc(N)c23)cc1 (single isomer, unassigned) [Example 18, N-(4-(4-amino-1-(6-(hydroxymethyl)tetrahydro-2H-pyran-3-yl)-1H-pyrazolo[3,4-d]pyrimidin-3-yl)benzyl)-5-fluoro-2-methoxybenzamide] | ≤ 10 nM | ≤ 25 nM | ≤ 25 nM |
| COc1ccc(F)cc1C(=O)NCc1ccc(-c2nn(C3CCCC(O)C3)c3ncnc(N)c23)cc1 (single isomer, unassigned) [Example 7] |  | ≤ 25 nM | 25 to 50 nM |
| COc1ccc(F)cc1C(=O)NCc1ccc(-c2nn(C3CCCC(O)C3)c3ncnc(N)c23)cc1 (single isomer, unassigned) [Example 5] | 10 to 50 nM | ≤ 25 nM | ≤ 25 nM |
| COc1ccc(F)cc1C(=O)NCc1ccc(-c2nc(C3CCCC(O)C3)n3ccnc(N)c23)cc1 (stereo not shown) [Example 20, N-(4-(8-amino-3-(3-hydroxycyclohexanyl)imidazo[1,5-a]pyrazin-1-yl)benzyl)-5-fluoro-2-methoxybenzamide] | ≤ 10 nM | ≤ 25 nM | ≤ 25 nM |
| COc1ccc(F)cc1C(=O)NCc1ccc(-c2nc(C3CCCC(O)C3)n3ccnc(N)c23)cc1 (single isomer, unassigned) [Example 22, N-(4-(8-amino-3-(3-hydroxycyclohexanyl)imidazo[1,5-a]pyrazin-1-yl)benzyl)-5-fluoro-2-methoxybenzamide] | ≤ 10 nM | ≤ 25 nM | ≤ 25 nM |
| COc1ccc(F)cc1C(=O)NCc1ccc(-c2nn(C3CCCC(O)C3)c3ncnc(N)c23)cc1 (stereo not shown) [Example 4] | ≤ 10 nM | ≤ 25 nM | 25 to 50 nM |
| COc1ccc(F)cc1C(=O)NCc1ccc(-c2nn(C3CCC(O)CC3)c3ncnc(N)c23)cc1 [Example 29, N-(4-(4-amino-1-((1R,4R)-4-hydroxycyclohexyl)-1H-pyrazolo[3,4-d]pyrimidin-3-yl)benzyl)-5-fluoro-2-methoxybenzamide] | ≤ 10 nM | ≤ 25 nM | ≤ 25 nM |
| COc1ccc(F)cc1C(=O)NCc1ccc(-c2nn(C3CCCC(O)C3)c3ncnc(N)c23)cc1 (single isomer, unassigned) [Example 6] | ≤ 10 nM | ≤ 25 nM | ≤ 25 nM |

More lines, now with the values ahead:

| IC50 (BTK kinase) | IC50 [1] | IC50 [2] | SMILES |
| --- | --- | --- | --- |
| ≤ 10 nM | ≤ 25 nM | ≤ 25 nM | COc1ccc(F)cc1C(=O)NCc1ccc(-c2nn([C@H]3CC[C@@H](O)CC3)c3ncnc(N)c23)cc1 [Example 30, N-(4-(4-amino-1-((1S,4S)-4-hydroxycyclohexyl)-1H-pyrazolo[3,4-d]pyrimidin-3-yl)benzyl)-5-fluoro-2-methoxybenzamide] |
| ≤ 10 nM | ≤ 25 nM | ≤ 25 nM | COc1ccc(F)cc1C(=O)NCc1ccc(-c2nn([C@H]3CC[C@H](CO)CC3)c3ncnc(N)c23)cc1 [Example 56, trans-N-(4-(4-amino-1-((1R,4R)-4-(hydroxymethyl)cyclohexyl)-1H-pyrazolo[3,4-d]pyrimidin-3-yl)benzyl)-5-fluoro-2-methoxybenzamide] |
| ≤ 10 nM | ≤ 25 nM | ≤ 25 nM | COc1ccc(F)cc1C(=O)NCc1ccc(-c2cc(C3CCC(CO)OC3)n3ncnc(N)c23)cc1 (single isomer, unassigned) [Example 60, N-(4-(4-amino-7-(6-(hydroxymethyl)tetrahydro-2H-pyran-3-yl)pyrrolo[2,1-f][1,2,4]triazin-5-yl)benzyl)-5-fluoro-2-methoxybenzamide] |
| 10 to 50 nM | 25 to 50 nM | 50 to 100 nM | COc1ccc(F)cc1C(=O)NCc1ccc(-c2cc(C3CCC(CO)OC3)n3ncnc(N)c23)cc1 (single isomer, unassigned) [Example 59, N-(4-(4-amino-7-(6-(hydroxymethyl)tetrahydro-2H-pyran-3-yl)pyrrolo[2,1-f][1,2,4]triazin-5-yl)benzyl)-5-fluoro-2-methoxybenzamide] |
| ≤ 10 nM | ≤ 25 nM | ≤ 25 nM | COc1ccc(F)cc1C(=O)NCc1ccc(-c2nn([C@H]3CC[C@@H](CO)CC3)c3ncnc(N)c23)cc1 [Example 55, cis-N-(4-(4-amino-1-((1S,4S)-4-(hydroxymethyl)cyclohexyl)-1H-pyrazolo[3,4-d]pyrimidin-3-yl)benzyl)-5-fluoro-2-methoxybenzamide] |
| ≤ 10 nM | ≤ 25 nM | ≤ 25 nM | COc1ccc(F)cc1C(=O)NCc1ccc(-c2nn(C3CCC(O)C3)c3ncnc(N)c23)cc1 (single isomer, unassigned) [Example 31, N-(4-(4-amino-1-(3-hydroxycyclopentanyl)-1H-pyrazolo[3,4-d]pyrimidin-3-yl)benzyl)-5-fluoro-2-methoxybenzamide] |
